Results on 5 molecules are retold here after patent US12168652B2, “Neuromuscular blocking agents” (The Curators of the University of Missouri, priority 2018, dated 2024).

Test [1] concerns rat phrenic nerve, hemi-diaphragm preparation. Put plainly: Rat phrenic nerve hemi-diaphragm preparation, neostigmine reversibility. Conditions: FIG. 8, in vitro; for neostigmine reversibility of the loss of strength (muscle weakness): 1 μM neostigmine. As for the experimental part:
Male, Sprague-Dawley rats weighing 100-180 g were obtained from Envigo and euthanized by exposure to 4.5% isoflurane followed by exsanguination. Right and left hemi-diaphragms were removed and placed in oxygen bubbled, cold saline until use. The saline contained, in mM, 140 NaCl, 5 KCl, 1.6 CaCl2·6H2O, 1 NaH2PO4, 6 NaHCO3, 5 D-glucose, 10 HEPES, pH 7.2 adjusted with 1 N NaOH, and was bubbled with 100% oxygen at 22° C. The costal cartilage of the hemi-diaphragm was secured to the floor of a 20 mL volume chamber with a metal hook and the crural end attached to a metal hook and thread leading to a force transducer (iWorx Systems, Dover, NH) and a data acquisition program (Labscribe). The phrenic nerve was introduced into a suction electrode and stimulated (pulse width=0.5 msec, supramaximal voltage=1 V) with a train of four, i.e., four stimuli in two seconds, repeated every minute. The first pulse, T1, was used as a measure of muscle strength. […]
In the figure CONTROL is the force of contraction before addition of test substances, TEST is the force after the addition of test substances, NEOSTIG is the force of contraction after the addition of 1 μM neostigmine, ROC is rocuronium, and SUC is succinylcholine.

The target in test [2] is T1, adult, human muscle, nicotinic acetylcholine receptor (Homo sapiens, UniProt P02708+P11230+Q04844+Q07001).
T1 construct: expressed in transfected cells; host or cells: HEK-293
Description: Patch clamp electrophysiology in transfected HEK-293 cells. The test is classed as cell-based. The settings on record: outside-out patch, 10 μM compound, 300 μM acetylcholine, -50 mV; for competition with acetylcholine at the receptor (summary graph): FIG. 9B. As to the method:
Patch clamp electrophysiology: HEK-293 cells were transfected with the cDNA for adult, human muscle acetylcholine receptors and prepared for patch clamp recording as described previously. Immediately before the experiment, the culture medium was replace with an extracellular solution (ECS) contains 150 mM NaCl, 5.6 mM KCl, 1.8 mM CaCl2, 1.0 mM MgCl2, and 10 mM HEPES, pH 7.3. Patch pipettes filled with a solution consisting of 140 mM KCl, 5 mM EGTA, 5 mM MgCl2, and 10 mM HEPES, pH 7.3, had resistances of 3 to 4 MΩ. An outside-out patch with a seal resistance of >2 GΩ was excised from a cell and moved into position at the outflow of a HSSE-2 rapid perfusion system (ALA Scientific Instruments, Westbury, NY). The patch was rapidly and transiently perfused with 300 μM acetylcholine to activate >95% of the channels at a holding potential of −50 mV. This was the control trace; the figures show the average of 5 control traces. Subsequently, the same patch was used to test for agonist activity by the carborane compounds by switching to a reservoir containing 300-1000 μM of the compound, repeated 5 times. To test for antagonism, the patch was equilibrated with 10 μM of the compound for >3 s followed by rapid perfusion of 300 μM acetylcholine+compound. Each series of traces using a compound was followed a return to control conditions (recovery) to determine that the control current hadn't changed by more than 20%. The peak current for each series of traces was calculated. The decrease in peak current represented a combination of competitive and open-channel block by the compound. The results are illustrated in FIGS. 9A and 9B.
(In patch-clamp work, channel activity is measured electrically.)

In the next test the test system is mice. Conditions: FIG. 6; dose response.

“Also recorded” adds a separate entry of the source.

Regarding “1,2-bis(N, N, N-trimethylpropan-1-aminium)-1,2-closo-carborane di-iodide [compound 1]”, in test [1], the “mechanism of action (depolarizing or non-depolarizing) from neostigmine reversal” value is “non-depolarizing NMBA; also recorded: non-depolarizers” and the “neostigmine reversibility of the loss of strength (muscle weakness)” value is given as “reversed by neostigmine”. In test [2], the “competition with acetylcholine at the receptor (summary graph)” value was “compete with acetylcholine”.
On the same counts, the results for “1,7-bis(N, N, N-trimethylpropan-1-aminium)-1,7-closo-carborane di-iodide [compound 2]” are “non-depolarizing NMBA; also recorded: non-depolarizers”, “reversed by neostigmine” and “compete with acetylcholine”.
As to “1,12-bis(N, N, N-trimethylpropan-1-aminium)-1,12-closo-carborane di-iodide [compound 3]”, in test [1], the “mechanism of action (depolarizing or non-depolarizing) from neostigmine reversal” value is recorded as “non-depolarizing NMBA; also recorded: non-depolarizers” and the “neostigmine reversibility of the loss of strength (muscle weakness)” value is “reversed by neostigmine”. Besides, the “competition with acetylcholine at the receptor (single compound traces)” value in test [2] (FIG. 9A) is “competes reversibly with acetylcholine”. Moreover, the “competition with acetylcholine at the receptor (summary graph)” value in test [2] is “compete with acetylcholine”. Also, the “relative potency for loss of mouse grip strength as a function of dose injected” value with mice is given as “more potent than compound 1”.
As to `C=CC[N+]1([C@H]2C[C@H]3[C@@H]4CC[C@H]5C[C@H](O)[C@@H](N6CCOCC6)C[C@]5(C)[C@H]4CC[C@]3(C)[C@H]2OC(C)=O)CCCC1` [rocuronium, Rocuronium bromide, reference compound], the “neostigmine reversibility of the loss of strength (muscle weakness)” value in test [1] was “reversed by neostigmine”.
Still for that read-out and setting: with `C[N+](C)(C)CCOC(=O)CCC(=O)OCC[N+](C)(C)C` [succinylcholine, succinylcholine chloride, reference compound] the entry was “not reversed by neostigmine”.
